The structures appear in SMILES notation.

Results on 28 molecules are retold here after patent publication US10399974B2, “N2-phenyl-pyrido[3,4-D]pyrimidine-2, 8-diamine derivatives and their use as Mps1 inhibitors” (Cancer Research Technology Limited, priority 2014, dated 2019).

One experiment deals with full length MPS1 (Homo sapiens (Human), UniProt P33981). The experiment is described as follows: Measurement of Inhibition of MPS1 Kinase. It is filed as biochemical.
Chain of full length MPS1 (P33981 whole entry): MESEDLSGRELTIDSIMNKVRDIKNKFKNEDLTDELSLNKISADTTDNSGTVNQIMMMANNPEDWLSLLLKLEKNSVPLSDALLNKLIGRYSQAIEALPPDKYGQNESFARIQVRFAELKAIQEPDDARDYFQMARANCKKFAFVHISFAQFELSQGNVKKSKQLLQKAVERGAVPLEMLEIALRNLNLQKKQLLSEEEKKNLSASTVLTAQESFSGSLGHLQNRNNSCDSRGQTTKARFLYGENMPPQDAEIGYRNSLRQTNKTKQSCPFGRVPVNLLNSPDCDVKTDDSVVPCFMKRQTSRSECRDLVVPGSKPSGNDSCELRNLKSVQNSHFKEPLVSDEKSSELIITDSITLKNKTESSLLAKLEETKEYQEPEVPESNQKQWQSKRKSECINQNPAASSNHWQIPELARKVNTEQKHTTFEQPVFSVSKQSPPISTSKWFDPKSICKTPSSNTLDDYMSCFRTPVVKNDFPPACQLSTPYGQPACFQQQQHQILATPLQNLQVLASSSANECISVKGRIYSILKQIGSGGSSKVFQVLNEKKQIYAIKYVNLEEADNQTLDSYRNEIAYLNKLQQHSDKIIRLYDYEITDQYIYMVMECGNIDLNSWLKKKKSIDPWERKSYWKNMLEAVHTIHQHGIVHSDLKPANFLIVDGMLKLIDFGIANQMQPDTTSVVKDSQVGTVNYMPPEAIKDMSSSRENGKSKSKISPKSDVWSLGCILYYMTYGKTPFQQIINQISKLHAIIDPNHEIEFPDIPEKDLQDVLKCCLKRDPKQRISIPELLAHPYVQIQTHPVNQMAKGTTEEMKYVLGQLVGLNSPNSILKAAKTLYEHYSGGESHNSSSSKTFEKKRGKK
Settings: not given
The procedure: Measurement of Inhibition of MPS1 Kinase
(5 μM), ATP (10 μM), either DMSO (1% v/v) or the test compound (in the range 0.25 nM-100 μM in 1% DMSO) and assay buffer (50 mM HEPES (pH 7.0), 0.02% NaN3, 0.01% BSA, 0.1 mM Orthovandate, […], 1 μM DTT, Roche protease inhibitor). The reaction was carried out for 60 min at room temperature and stopped by the addition of buffer (10 μl) containing 20 mM EDTA, 0.05% (v/v) Brij-35, in 0.1M HEPES-buffered saline (Free acid, Sigma, UK). The plate was read on a Caliper EZ reader II (Caliper Life Sciences).
The reader provides a Software package (‘Reviewer’) which converts the peak heights into % conversion by measuring both product and substrate peak and also allows selection of control well which represent 0% and 100% inhibition, respectively. The % inhibition of the compounds is calculated relative to the means of selected control wells. IC50s are determined by testing the compounds at a range of concentrations from 0.25 nM-100 μM. The % inhibitions at each concentration are then fitted to a 4 parameter logistic fit: y=(a+((b−a)/(1+((c/x^d)))) where a=asym min, b=asym max, c=IC50 and d=hill coefficient
As a reminder, the IC50 is the midpoint of a concentration-inhibition curve. As for `CCOc1cc(-c2nncn2C)ccc1Nc1ncc2cc(C)nc(N3CC(C)(C)C3)c2n1` [Example 29, 8-(3,3-dimethylazetidin-1-yl)-N-(2-ethoxy-4-(4-methyl-4H-1,2,4-triazol-3-yl)phenyl)-6-methylpyrido[3,4-d]pyrimidin-2-amine], it took 2 nM to reach half-maximal inhibition (IC50).

The experiment is the same for the next values; noted with them: full length MPS1 12.5 nM or 3 nM, H236 peptide 5 μM, ATP 10 μM, 60 min at room temperature, Caliper EZ reader II; read-out: MPS1 IC50.
As to `CCOc1cc(-c2nncn2C)ccc1Nc1ncc2cc(C)nc(N3CC4(CCO4)C3)c2n1` [Example 36, N-(2-ethoxy-4-(4-methyl-4H-1,2,4-triazol-3-yl)phenyl)-6-methyl-8-(1-oxa-6-azaspiro[3.3]heptan-6-yl)pyrido[3,4-d]pyrimidin-2-amine], the IC50 turned out to be 2 nM. In the case of `CCOc1cc(-c2nnc(C)n2C)ccc1Nc1ncc2cc(C)nc(NCC(C)(C)C)c2n1` [Example 7, N2-(4-(4,5-dimethyl-4H-1,2,4-triazol-3-yl)-2-ethoxyphenyl)-6-methyl-N8-neopentylpyrido[3,4-d]pyrimidine-2,8-diamine], the IC50 turned out to be 4 nM.

Consider `CCOc1cc(-c2nncn2C)ccc1Nc1ncc2cc(C)nc(N3CCC(OC)C3)c2n1` (stereo not shown) [Example 39, N-(2-ethoxy-4-(4-methyl-4H-1,2,4-triazol-3-yl)phenyl)-8-(3-methoxypyrrolidin-1-yl)-6-methylpyrido[3,4-d]pyrimidin-2-amine], for which the IC50 amounted to 3 nM. For `CCOc1cc(-c2nncn2C)ccc1Nc1ncc2cc(C)nc(N3CCC(C#N)CC3)c2n1` [Example 5, 1-(2-((2-ethoxy-4-(4-methyl-4H-1,2,4-triazol-3-yl)phenyl)amino)-6-methylpyrido[3,4-d]pyrimidin-8-yl)piperidine-4-carbonitrile], the half-inhibitory concentration (IC50) was 3 nM. Still for that read-out and setting: for `CCOc1cc(-c2nncn2C)ccc1Nc1ncc2cc(C)nc(N3CCC(C)(O)C3)c2n1` (stereo not shown) [Example 37, 1-(2-((2-ethoxy-4-(4-methyl-4H-1,2,4-triazol-3-yl)phenyl)amino)-6-methylpyrido[3,4-d]pyrimidin-8-yl)-3-methylpyrrolidin-3-ol] the value was 3 nM; for `COc1cc(-c2ccn(C)n2)ccc1Nc1ncc2cc(C)nc(NCC(C)(C)C)c2n1` [Example 11, N2-(2-methoxy-4-(1-methyl-1H-pyrazol-3-yl)phenyl)-6-methyl-N8-neopentylpyrido[3,4-d]pyrimidine-2,8-diamine], 36 nM. Still for that read-out and setting: for `COc1cc(-c2cnc(C)n2C)ccc1Nc1ncc2cc(C)nc(N3CCC(C#N)CC3)c2n1` [Example 34, 1-(2-((4-(1,2-dimethyl-1H-imidazol-5-yl)-2-methoxyphenyl)amino)-6-methylpyrido[3,4-d]pyrimidin-8-yl)piperidine-4-carbonitrile] the value was 3 nM; for `COc1cc(-c2cnc(C)n2C)ccc1Nc1ncc2cc(C)nc(N3CC(C)(C)C3)c2n1` [Example 19, N-(4-(1,2-dimethyl-1H-imidazol-5-yl)-2-methoxyphenyl)-8-(3,3-dimethylazetidin-1-yl)-6-methylpyrido[3,4-d]pyrimidin-2-amine], 5 nM; for `COc1cc(-c2nccn2C)ccc1Nc1ncc2cc(C)nc(NCC(C)(C)C)c2n1` [Example 12, N2-(2-methoxy-4-(1-methyl-1H-imidazol-2-yl)phenyl)-6-methyl-N8-neopentylpyrido[3,4-d]pyrimidine-2,8-diamine], 4 nM. On the same count and under the same terms, the same measure for `CCOc1cc(-c2nncn2CC)ccc1Nc1ncc2cc(C)nc(N3CC(C)(C)C3)c2n1` [Example 25, 8-(3,3-dimethylazetidin-1-yl)-N-(2-ethoxy-4-(4-ethyl-4H-1,2,4-triazol-3-yl)phenyl)-6-methylpyrido[3,4-d]pyrimidin-2-amine]: 6 nM; for `CCOc1cc(-c2nncn2C)ccc1Nc1ncc2cc(C)nc(N3CCC(OC)CC3)c2n1` [Example 46, N-(2-ethoxy-4-(4-methyl-4H-1,2,4-triazol-3-yl)phenyl)-8-(4-methoxypiperidin-1-yl)-6-methylpyrido[3,4-d]pyrimidin-2-amine]: 3 nM; for `Cc1cc2cnc(Nc3ccc(-c4nncn4C)cc3OC(F)F)nc2c(N2CC(C)(C)C2)n1` [Example 62, N-(2-(difluoromethoxy)-4-(4-methyl-4H-1,2,4-triazol-3-yl)phenyl)-8-(3,3-dimethylazetidin-1-yl)-6-methylpyrido[3,4-d]pyrimidin-2-amine]: 16 nM.

Turning to `CCOc1cc(-c2nncn2C)ccc1Nc1ncc2cc(C)nc(N3CC(C(F)(F)F)C3)c2n1` [Example 40, N-(2-ethoxy-4-(4-methyl-4H-1,2,4-triazol-3-yl)phenyl)-6-methyl-8-(3-(trifluoromethyl)azetidin-1-yl)pyrido[3,4-d]pyrimidin-2-amine], the half-maximal inhibitory concentration (IC50) was determined as 5 nM. On the same count and under the same terms, the same measure for `CCOc1cc(-c2nncn2C)ccc1Nc1ncc2cc(C)nc(N3CC4(CCOCC4)C3)c2n1` [Example 4, N-(2-ethoxy-4-(4-methyl-4H-1,2,4-triazol-3-yl)phenyl)-6-methyl-8-(7-oxa-2-azaspiro[3.5]nonan-2-yl)pyrido[3,4-d]pyrimidin-2-amine]: 2 nM; for `CCOc1cc(-c2nncn2C)ccc1Nc1ncc2cc(C)nc(N3CCCC(OC)C3)c2n1` (racemic) [Example 47, Racemic-N-(2-ethoxy-4-(4-methyl-4H-1,2,4-triazol-3-yl)phenyl)-8-(3-methoxypiperidin-1-yl)-6-methylpyrido[3,4-d]pyrimidin-2-amine]: 6 nM; for `CCOc1cc(-c2nncn2C)ccc1Nc1ncc2cc(C)nc(N3CC4(CCC4)C3)c2n1` [Example 55, N-(2-ethoxy-4-(4-methyl-4H-1,2,4-triazol-3-yl)phenyl)-6-methyl-8-(2-azaspiro[3.3]heptan-2-yl)pyrido[3,4-d]pyrimidin-2-amine]: 4 nM. As to `COc1cc(-c2oc(C)nc2C)ccc1Nc1ncc2cc(C)nc(NCC(C)(C)C)c2n1` [Example 17, N2-(4-(2,4-dimethyloxazol-5-yl)-2-methoxyphenyl)-6-methyl-N8-neopentylpyrido[3,4-d]pyrimidine-2,8-diamine], the IC50 was found to be 43 nM.

On to `CCOc1cc(-c2nncn2C)ccc1Nc1ncc2cc(C)nc(N3CCCC3)c2n1` [Example 56, N-(2-ethoxy-4-(4-methyl-4H-1,2,4-triazol-3-yl)phenyl)-6-methyl-8-(pyrrolidin-1-yl)pyrido[3,4-d]pyrimidin-2-amine], for which the IC50 is 6 nM. Regarding `COc1cc(-c2cnc(C)n2C)ccc1Nc1ncc2cc(C)nc(N3CC4(CCOCC4)C3)c2n1` [Example 20, N-(4-(1,2-dimethyl-1H-imidazol-5-yl)-2-methoxyphenyl)-6-methyl-8-(7-oxa-2-azaspiro[3.5]nonan-2-yl)pyrido[3,4-d]pyrimidin-2-amine], the IC50 amounted to 12 nM. The same measure, in the same setting: for `CCOc1cc(-c2nncn2C)ccc1Nc1ncc2cc(C)nc(NCC3(O)CCC3)c2n1` [Example 8, 1-(((2-((2-ethoxy-4-(4-methyl-4H-1,2,4-triazol-3-yl)phenyl)amino)-6-methylpyrido[3,4-d]pyrimidin-8-yl)amino)methyl)cyclobutanol] the value was 3 nM; for `COc1cc(-c2nnnn2C)ccc1Nc1ncc2cc(C)nc(NCC(C)(C)C)c2n1` [Example 16, N2-(2-methoxy-4-(1-methyl-1H-tetrazol-5-yl)phenyl)-6-methyl-N8-neopentylpyrido[3,4-d]pyrimidine-2,8-diamine], 5 nM; for `CCOc1cc(-c2nncn2C)ccc1Nc1ncc2cc(C)nc(N3CCC(O)CC3)c2n1` [Example 52, 1-(2-(2-ethoxy-4-(4-methyl-4H-1,2,4-triazol-3-yl)phenylamino)-6-methylpyrido[3,4-d]pyrimidin-8-yl)piperidin-4-ol], 2 nM.

Consider `Cc1cc2cnc(Nc3ccc(-c4nncn4C)cc3OC(F)F)nc2c(NCC(C)(C)C)n1` [Example 15, N2-(2-(difluoromethoxy)-4-(4-methyl-4H-1,2,4-triazol-3-yl)phenyl)-6-methyl-N8-neopentylpyrido[3,4-d]pyrimidine-2,8-diamine], for which the concentration for half-maximal inhibition (IC50) came out at 1 nM.

For the molecule `CCOc1cc(-c2nncn2C)ccc1Nc1ncc2cc(C)nc(NCC3(O)CC3)c2n1` [Example 31, 1-(((2-((2-ethoxy-4-(4-methyl-4H-1,2,4-triazol-3-yl)phenyl)amino)-6-methylpyrido[3,4-d]pyrimidin-8-yl)amino)methyl)cyclopropanol], the IC50 amounted to 8 nM. On the same count and under the same terms, the same measure for `COc1cc(-c2ncco2)ccc1Nc1ncc2cc(C)nc(NCC(C)(C)C)c2n1` [Example 14, N2-(2-methoxy-4-(oxazol-2-yl)phenyl)-6-methyl-N8-neopentylpyrido[3,4-d]pyrimidine-2,8-diamine]: 59 nM.

For the molecule `CCOc1cc(-c2nncn2C)ccc1Nc1ncc2cc(C)nc(N3CC(CC)(OC)C3)c2n1` [Example 60, N-(2-ethoxy-4-(4-methyl-4H-1,2,4-triazol-3-yl)phenyl)-8-(3-ethyl-3-methoxyazetidin-1-yl)-6-methylpyrido[3,4-d]pyrimidin-2-amine], the IC50 was determined as 3 nM.

With `COc1cc(-c2cnnn2C)ccc1Nc1ncc2cc(C)nc(NCC(C)(C)C)c2n1` [Example 1, N2-(2-methoxy-4-(1-methyl-1H-1,2,3-triazol-5-yl)phenyl)-6-methyl-N8-neopentylpyrido[3,4-d]pyrimidine-2,8-diamine], the IC50 was found to be 0.5 nM.
